Patent US6696495B2, “Treatment of disorders secondary to organic impairments” (Snowden Pharmaceuticals, LLC, priority 1998, dated 2004)

Key:
[1] = tested on: frontal lobe executive function, ADHD, and hyposexuality
[2] = tested on: Tourette's Disease Tics, Violence, and ADHD; test: Case history 8, Sibutramine Patient No. 47; assay type: in vivo, human
Huntington's Disease = test: Case history 12, Sibutramine Patient No. 113; assay type: in vivo, human
[3] = tested on: Fibromyalgia—Chronic Fatigue Syndrome
[4] = tested on: Asocial Behavior, Violence, and Hyposexuality; test: Case history 10, Sibutramine Patient No. 54; assay type: in vivo, human
[5] = tested on: Tourette's Tics, Asocial Behavior, and Relief of Hyposexuality; conditions: sibutramine 5 mg three times a day
[6] = tested on: Torticollis, Lingual Dystonia and Dyskinesia; test: Case history 23; assay type: in vivo, human

CC(C)CC(N(C)C)C1(c2ccc(Cl)cc2)CCC1.Cl (stereo not drawn) [sibutramine, N,N-dimethyl-1-[1-(4-chlorophenyl)cyclobutyl]-3-methylbutylamine hydrochloride]
sexual drive after radical prostatectomy ([1]; sibutramine): this problem of sexual drive was repaired
efficacy after dose decrease ([1]; sibutramine 5 mg bid, pemoline and methylphenidate discontinued): without a loss of efficacy
side effects ([1]; sibutramine 10 mg. bid): dry mouth and some insomnia
concentration and ability to plan ([1]; sibutramine 10 mg. bid p.o. Person): immediate repair of concentration, and particularly their ability to plan and carry out these plans effectively
tics, aggressive outbursts, concentration ([2]; human, in vivo): rapidly relieved their tics, their aggressive outbursts, and helped their concentration
wear-off of effects ([2]; sibutramine 10 mg every morning): wore off quickly after noon with a rapid return of all symptoms
tics, violence, concentration problems ([2]; sibutramine 10 mg three times daily): loss of verbal and motor tics, violence, and concentration problems
ataxic gait with continued treatment (Huntington's Disease; gradually, continued sibutramine): improvements in their ataxic gait
time to relief after the first capsule (Huntington's Disease; sibutramine 5 mg): ≤ 20 min
cognitive, emotional, behavioral problems and ataxic gait (Huntington's Disease; sibutramine 5 mg three times a day, first capsule, person): complete relief of the cognitive, emotional, and behavioral problems but not with the ataxic gait
sleep ([3]; first night after sibutramine): difficulty in getting to sleep that first night
alertness and concentration ([3]; sibutramine 5 mg tid p.o.): became alert and able to concentrate
fatigue and energy ([3]; sibutramine 5 mg tid p.o.): their fatigue diminished and their energy increased substantially
pain points ([3]; sibutramine 5 mg tid p.o.): their pain points were still tender but that the burning sensation at these points had abated within 4 days
time to response after the first 5 mg capsule ([3]; sibutramine 5 mg tid p.o. Person): ≤ 2 h
speech, compulsive acts, social activity, sexual interest ([4]; sibutramine 5 mg tid): a decrease in repetitive speech, hissing, and compulsive acts, an increase in social activity and sexual interest, and increased speech generally
violence / manageability ([4]; sibutramine 10 mg daily, person): again became calm and manageable
ADHD [5]: his ADHD improved
communication and social skills [5]: their communication and social skills improved
motor and vocal tics, obsessive compulsive component ([5]; child): the motor and vocal tics associated with Tourette's Disease were decreased as well as the obsessive compulsive component
symptoms with continued dosing ([6]; 15 mg sibutramine every six hours): prolonged and sustained relief of their symptoms
pain ([6]; sibutramine 15): their pain subsided
tremors, mouth opening, arm movement ([6]; sibutramine 15): their tremors considerably slowed, their mouth was no. longer pulling open as dramatically and their arm was not moving noticeably
time to response ([6]; sibutramine 15, person): ≤ 45 min
